According to patent publication US11628186B2, “Method and composition for the reduction of viral replication, duration and spread of the COVID-19 and the flu” (priority 2017, dated 2023):
Where two headings read alike, the source gives them in different places.

Experiments:
[1] = test system: non-cancerous cells; assay: Viable non-cancerous cells after incubation with anticancer drugs in various media (Table VIII); type: cell-based; set-up: viability: concentration or dose not given beside the values; conditions: for Percentage of viable cells after incubation with drugs: drug alone
Experimental: (§1) Peripheral blood monocytes and U937 monocytic leukemia tumor cells were placed in sterile culture flasks and maintained in culture using Dulbecco's Minimal Essential Medium, with 10% fetal calf serum, supplemented with 2 mM glutamine and Pen/Strep. The cytotoxicity of the cytotoxic agent on the cells was analyzed by propidium iodide exclusion techniques and flow cytometric quantitation. Viability of the cells was quantified as the number of cells that excluded the vital dye trypan blue. Sodium pyruvate was dissolved in distilled water and the solution was adjusted to pH 7.4 with calcium, phosphate and magnesium. Solutions were sterile filtered. Stock solutions were prepared so that the vehicle would not be more than 1% of the total volume of the culture media. H-Thymidine Radiosotopic Incorporation Measurement of Cytotoxity. The membrane surfactant enhancers agents (sodium pyruvate and calcium, phosphate and magnesium), was examined for their ability to decrease the Cytotoxity of Doxorubicin to U937 monocytic leukemia cells and normal peripheral blood monocytes. […] Susceptibility studies were conducted to determine the optimal treatment time of the cells with the […] agents prior to treatment of the cells with the cytotoxic agent. The normal cells and U937 leukemic tumor cells were pretreated separately in “wash out” studies with the single agents alone, and in combination, at the optimal concentration described above for various time periods, washed with fresh medium to remove the agents, and treated with the cytotoxic agent. The co-culture of normal and U937 leukemic […] cells was treated essentially in the same manner except that the cells were not treated separately, but co-cultured. […] The cells were then placed in culture medium without the protective agents. […] Normal and U937 tumor cells were co-cultured and the Cytotoxity of Doxorubicin on the cells was determined by viability assays which examined the differential ability of the cytoprotective compositions alone, and in combinations, to protect the normal cells from the Cytotoxity of the chemotherapeutic agent. The cells were isolated and examined for morphological evidence of cytotoxicity or prevention of cytotoxicity. […] DNA synthesis studies using 3Hthymidine (1 uCi/well) were carried out 4 hours prior to termination of the experiment to determine the effect of the formulations on the proliferation of the cells as a measure of the prevention of cytotoxicity and the extent of Doxorubicin-induced cytotoxicity. Propidium iodide exclusion analysis was carried out for direct quantitation of the cytotoxicity and the prevention of cytotoxicity. Each set of studies was performed in triplicate so that statistical analysis of the significant differences between the treatment groups could be conducted. […] Wash-out studies were conducted to determine viability of the peripheral blood monocytes co-cultured with U937 monocytic leukemia cells after 24 hour pretreatment of the cells with the surfactant enhancer, which is also a mitochondrial protective agent, followed by administration of Doxorubicin.

[2] = test system: patients with lung diseases including COPD; assay: Comparison of inhaled salts of pyruvate, 5 ml of 5 mM solution (Table II)
[3] = test system: patients with lung diseases including COPD; assay: Comparison of inhaled salts of pyruvate, 5 ml of 0.5 mM solution (Table I); conditions: for FEV1: 5 mls of a 0.5 mM pyruvate inhalation solution in COPD and asthmatic patients
Experimental: All previous studies using pyruvate to treat Allergic Rhinitis, Asthmatic and COPD patients used only the sodium salt form of pyruvic acid in saline. The drug products that were tested in the six Phase I/II clinical trial were differing concentrations of sodium pyruvate dissolved in 0.9% sodium chloride solution (Saline). These drug products contained 0.5 mM, 1.5 mM, or 5.0 mM of sodium pyruvate in physiological saline. They were administered to normal volunteers and COPD and asthmatics by inhalation therapy. […] Various sodium pyruvate solutions were evaluated in the lungs for their ability to enhance FEV1 values and reduce coughing, and lung tightness.
The amount of the salts delivered in the 5 ml's of the 0.5 mM pyruvate solutions were compared to the amounts of the salts in 5 ml's of human blood. […] When ethyl pyruvate reacts with oxygen radical like hydrogen peroxide, it is converted to ethane and alcohol and Co2 and acetate. Ethane and alcohol are lung irritants.
This formula can also be made by adding 3% calcium phosphate or dicalcium phosphate to the standard 0.5 mM to 30 mM sodium pyruvate saline solution see Table I.

[4] = test system: patients with sinus & lung diseases including IPF and COPD; assay: Salts of pyruvate as 20 mM nasal sprays (Table IX)
Description: They never tested the individual salts for their ability to reduce inflammation or increase lung functions.

[5] = Viable non-cancerous cells after incubation with anticancer drugs in various media (Table VIII); type: cell-based; set-up: viability: concentration or dose not given beside the values; conditions: non-cancerous cells (normal peripheral blood monocytes)
Experimental: as §1

[6] = Drugs in commercial formula with sodium chloride only
[7] = Drugs in commercial formula with sodium pyruvate with calcium & phosphate & Magnesium ions repeat study
[8] = 5 ml of 5 mM solution in saline, inhaled
[9] = 5 ml of 5 mM solution, 1 most negative, 10 best
[10] = 5 ml of 0.5 mM solution in physiological saline, inhaled
[11] = 5 ml of 0.5 mM solution, inhaled
[12] = 5 ml of 0.5 mM solution, 1 most negative, 10 best
[13] = 20 mM (0.22%) nasal spray, 1 most negative, 10 best
[14] = Drugs in commercial formula with sodium chloride only, read-out: Percentage of viable non-cancerous cells
[15] = Drugs in commercial formula with sodium pyruvate with calcium & phosphate & Magnesium ions repeat study, read-out: Percentage of viable non-cancerous cells
[16] = Drugs in commercial formula with sodium pyruvate with calcium & phosphate & magnesium ions, read-out: Percentage of viable non-cancerous cells
[17] = Drugs in commercial formula with sodium pyruvate without calcium & phosphate & magnesium, read-out: Percentage of viable non-cancerous cells
[18] = drug alone, read-out: Percentage of viable cells after incubation with drugs
[19] = Drugs in commercial formula with sodium pyruvate with calcium & phosphate & magnesium ions
[20] = Drugs in commercial formula with sodium pyruvate without calcium & phosphate & magnesium
[21] = 5 mls of a 0.5 mM inhalation solution
[22] = 20 mM (0.22%) nasal spray in 0.9% sodium chloride

Row | Molecule | Percentage of viable non-cancerous cells [1, 6] [%] | Percentage of viable cells after incubation with drugs [1] [%] | Increased in FEV-1% ([4]; in vivo) [%] | Percentage Increase in SaO2 over baseline ([4]; in vivo) | Percentage increase of Nitric Oxide over baseline ([4]; in vivo) [%] | Relief of congestion, coughing and lung tightness ([4]; in vivo) | Increased in FEV-1% [2, 8] [%] | Percentage Increase in SaO2 over baseline ([2]; 5 ml of 5 mM solution, inhaled) | Percentage increase of Nitric Oxide over baseline ([2]; 5 ml of 5 mM solution, inhaled) [%] | Relief of congestion, coughing and lung tightness ([2]; 5 ml of 5 mM solution, inhaled) | Overall Rating 1-10 [2, 9] | Increased in FEV-1% lung function [3, 10] [%] | Percentage Increase in SaO2 over baseline [3, 11] | Percentage decrease or increase of Nitric Oxide over baseline [3, 11] | Relief of congestion, coughing and lung tightness [3, 11] | Overall Rating 1-10 [3, 12] | Overall Rating 1-10 [4, 13] | also measured
1 | N.N.O=C([O-])C1(C(=O)[O-])CCC1.[Pt+2] [Carboplatin] | 50 | 42 | – | – | – | – | – | – | – | – | – | – | – | – | – | – | – | Percentage of viable non-cancerous cells [1, 7]: 97%
2 | O=P(O)(O)O [Potassium Phosphate, reference compound] | – | – | 0.0 | No | 0 | 4 | – | – | – | – | – | – | – | – | – | – | – | Increased in FEV-1% ([2]; in vivo): 0%; Overall Rating 1-10 ([2]; in vivo): 3; Percentage Increase in SaO2 over baseline ([2]; in vivo): No; Percentage increase of Nitric Oxide over baseline ([2]; in vivo): 0%; Relief of congestion, coughing and lung tightness ([2]; in vivo): 4; Increased in FEV-1% lung function ([3]; in vivo): 0%; Overall Rating 1-10 ([3]; in vivo): 3; Percentage Increase in SaO2 over baseline ([3]; in vivo): No; Percentage decrease or increase of Nitric Oxide over baseline ([3]; in vivo): 0%; Relief of congestion, coughing and lung tightness ([3]; in vivo): 4; Overall Rating 1-10 ([4]; in vivo): 3
3 | CC(=O)C(=O)[O-].[K+] [Potassium, potassium pyruvate] | – | – | 6.1 | no | 10.0 | 5 | 2.1 | no | 25.0 | 5 | 7 | 8.0 | no | −14% | 5 | 7 | 6 | Irritation ([2]; 5 ml of 5 mM solution, inhaled): None; Irritation [3, 11]: None; FEV1 [3]: lower FEV1 results; Irritation ([4]; in vivo): None
4 | CC(C)(C#N)c1cc(Cn2cncn2)cc(C(C)(C)C#N)c1 [anastrozole] | – | – | – | – | – | – | – | – | – | – | – | – | – | – | – | – | – | viability [5, 14]: 25%; viability [5, 15]: 94%; viability [5, 16]: 86%; viability [5, 17]: 50%; viability [5, 18]: 24%
5 | O=c1[nH]c(=O)n([C@H]2C[C@H](O)[C@@H](CO)O2)cc1F [floxuridine] | – | – | – | – | – | – | – | – | – | – | – | – | – | – | – | – | – | viability [5, 14]: 38%; viability [5, 15]: 91%; viability [5, 16]: 92%; viability [5, 17]: 58%; viability [5, 18]: 38%
6 | CN(Cc1cnc2nc(N)nc(N)c2n1)c1ccc(C(=O)N[C@@H](CCC(=O)O)C(=O)O)cc1 [methotrexate] | – | – | – | – | – | – | – | – | – | – | – | – | – | – | – | – | – | viability [5, 14]: 43%; viability [5, 15]: 98%; viability [5, 16]: 94%; viability [5, 17]: 68%; viability [5, 18]: 42%
7 | O=C1[O][Pt]2([NH][C@@H]3CCCC[C@H]3[NH]2)[O]C1=O [oxaliplatin] | 24 | 23 | – | – | – | – | – | – | – | – | – | – | – | – | – | – | – | Percentage of viable non-cancerous cells [1, 7]: 98%; Percentage of viable non-cancerous cells [1, 19]: 95%; Percentage of viable non-cancerous cells [1, 20]: 41%
8 | Bevacizumab | 27 | 21 | – | – | – | – | – | – | – | – | – | – | – | – | – | – | – | Percentage of viable non-cancerous cells [1, 20]: 40%
9 | Bleomycin | 33 | 31 | – | – | – | – | – | – | – | – | – | – | – | – | – | – | – | Percentage of viable non-cancerous cells [1, 7]: 98%; Percentage of viable non-cancerous cells [1, 19]: 98%; Percentage of viable non-cancerous cells [1, 20]: 47%
10 | aluminum pyruvate | – | – | – | – | – | – | 0 | No | 15.0 | 1 | 4 | 0 | No | +8.0% | 1 | 3 | 1 | reduction of nitric oxide [3, 21]: did not reduce nitric oxide; Increased in FEV-1% [4, 22]: 0.0%; Percentage Increase in SaO2 over baseline [4, 22]: No; Percentage increase of Nitric Oxide over baseline [4, 22]: 00.0%; Relief of congestion, coughing and lung tightness [4, 22]: 1
11 | calcium pyruvate | – | – | 7.0 | 1% | 17.0 | 5 | 1.0 | 1% | 17.0 | 5 | 7 | 10.0 | no | −18% | 5 | 7 | 7 | Irritation ([2]; 5 ml of 5 mM solution, inhaled): None; Irritation [3, 11]: None; FEV1 [3]: 10%; Irritation ([4]; in vivo): None
12 | manganese pyruvate | – | – | – | – | – | – | 3.0 | No | 25.0 | 4 | 3 | 3.0 | No | −2.0% | 4 | 3 | 3 | reduction of nitric oxide [3, 21]: did not reduce nitric oxide; Increased in FEV-1% [4, 22]: 0.0%; Percentage Increase in SaO2 over baseline [4, 22]: No; Percentage increase of Nitric Oxide over baseline [4, 22]: 2.0%; Relief of congestion, coughing and lung tightness [4, 22]: 4
13 | zinc pyruvate | – | – | 1.0 | No | 2.0 | 4 | 1.0 | No | 22.0 | 4 | 3 | 8.0 | No | +10% | 4 | 4 | 3 | Irritation ([2]; 5 ml of 5 mM solution, inhaled): Yes; Irritation [3, 11]: Yes; increased nitric oxide levels [3, 21]: 10%; reduction of nitric oxide [3, 21]: did not reduce nitric oxide; Irritation ([3]; inhaled into the lungs): irritating; Irritation ([4]; in vivo): Yes
